Where a name gives a salt, the structure may show the parent alone.

The melting point is the temperature, or range, at which the solid turns liquid. The compound `O=C1NC(=O)c2ccc(Br)cc2/C1=C/NCc1ccc(OCCO)c(O)c1` (as salt: potassium) [Example 139, (4Z)-6-Bromo-4-({[3-hydroxy-4-(2-hydroxyethoxy)benzyl]amino}methylene)isoquinoline-1,3(2H,4H)-dione] returned a melting point of 166 to 167 °C.

The compound `CC(=O)Nc1ccc(CN/C=C2\C(=O)NC(=O)c3ccc(I)cc32)cc1O` (as salt: potassium) [Example 151, N-[2-Hydroxy-4-({[(Z)-(6-iodo-1,3-dioxo-2,3-dihydroisoquinolin-4(1H)-′ylidene)methyl]amino}methyl)phenyl]acetamide] came in with a melting point of 345 to 346 °C.

As to `CCCOc1ccc(CN/C=C2\C(=O)NC(=O)c3ccc(-c4cccc(F)c4)cc32)cc1O` (as salt: sodium) [Example 193, (4Z)-6-(3-Fluorophenyl)-4-{[(3-hydroxy-4-propoxybenzyl)amino]methylene}-isoquinoline-1,3(2H,4H)-dione], the melting point fell in the range of 209 to 210 °C.

On to `CCCOc1ccc(CN/C=C2\C(=O)NC(=O)c3ccc(-c4ccc(F)c(F)c4)cc32)cc1O` (as salt: sodium) [Example 194, (4Z)-6-(3,4-Difluorophenyl)-4-{[(3-hydroxy-4-propoxybenzyl)amino]methylene}-isoquinoline-1,3(2H,4H)-dione], for which the melting point lay within 227 to 228 °C.

The compound `C[C@@H]1CN(c2ccc(N/C=C3\C(=O)NC(=O)c4ccc(-c5ccc(F)cc5)cc43)cc2)C[C@H](C)N1` (as salt: sodium) [Example 205, (4Z)-4-({[4-(3,5-Dimethylpiperazin-1-yl)phenyl]amino}methylene)-6-(4-fluorophenyl)-isoquinoline-1,3(2H,4H)-dione] came in with a melting point of 193 to 194 °C.

As for `C[C@@H]1CN(c2ccc(N/C=C3\C(=O)NC(=O)c4ccc(-c5ccsc5)cc43)cc2)C[C@H](C)N1` (as salt: sodium) [Example 206, (4Z)-4-({[4-(3,5-Dimethylpiperazin-1-yl)phenyl]amino}methylene)-6-thien-3-ylisoquinoline-1,3(2H,4H)-dione], the melting point lay in the range of 164 to 165 °C.

`C[C@@H]1CN(c2ccc(N/C=C3\C(=O)NC(=O)c4ccc(-c5ccoc5)cc43)cc2)C[C@H](C)N1` (as salt: sodium) [Example 207, (4Z)-4-({[4-(3,5-Dimethylpiperazin-1-yl)phenyl]amino}methylene)-6-(3-furyl)iso-quinoline-1,3(2H,4H)-dione]: the melting point fell in the range of 199 to 200 °C.

For the compound `COc1ccc(CN/C=C2\C(=O)NC(=O)c3ccc(-c4ccc(F)cc4)cc32)cc1O` (as salt: sodium) [Example 208, (4Z)-6-(4-Fluorophenyl)-4-{[(3-hydroxy-4-methoxybenzyl)amino]methylene}iso-quinoline-1,3(2H,4H)-dione], the melting point was in the range of 239 to 240 °C.

As for `COc1ccc(CN/C=C2\C(=O)NC(=O)c3ccc(-c4cccc(F)c4)cc32)cc1O` (as salt: sodium) [Example 209, (4Z)-6-(3-Fluorophenyl)-4-{[(3-hydroxy-4-methoxybenzyl)amino]methylene}iso-quinoline-1,3(2H,4H)-dione], the melting point was in the range of 204 to 205 °C.

Regarding `CN1CCN(c2ccc(N/C=C3\C(=O)NC(=O)c4ccc(-c5ccoc5)cc43)cc2)CC1` (as salt: sodium) [Example 236, (4Z)-6-(3-Furyl)-4-({[4-(4-methylpiperazin-1-yl)phenyl]amino}methylene)isoquinoline-1,3(2H,4H)-dione], the melting point fell in the range of 190 to 191 °C.

Consider `CN1CCN(c2ccc(N/C=C3\C(=O)NC(=O)c4ccc(-c5ccc(F)cc5)cc43)cc2)CC1` (as salt: sodium) [Example 263, (4Z)-6-(4-Fluorophenyl)-4-({[4-(4-methylpiperazin-1-yl)phenyl]amino}methylene)-isoquinoline-1,3(2H,4H)-dione], for which the melting point is 228 to 229 °C.

For the origin of these results see US7713994B2 (Wyeth LLC, priority 2005, dated 2010).
